Data as given in patent US8168651B2, “Protein kinase modulators” (Cylene Pharmaceuticals, Inc., priority 2008, dated 2012).
Like-named read-outs stand apart in the source and are kept apart here.

Assays:
PARP-HSA enzyme = PARP-HSA enzyme (Homo sapiens (Human), UniProt P09874); assay: PARP assay (chemiluminescent PARP assay kit, Trevigen); type: biochemical; settings: for IC50: read-out: PARP Inhibition IC50; for PARP Inhibition: at 1 μM
Description: Modulatory activity of compounds described herein was assessed in vitro in cell-free CK2 assays. Modulatory activity of compounds described herein also are assessed in vitro in cell-free PARP assays. These assays are described hereafter.
PARP assays are conducted using a chemiluminescent PARP assay kit (Trevigen). Briefly, reactions are performed in Histone-coated strip wells, by adding 10 microliters test compound dissolved in 1×PARP Buffer (prepared by mixing 20×PARP buffer diluted with high-purity water) and 15 microliters diluted PARP-HSA enzyme (diluted in 1×PARP buffer, 0.1 unit per well) to 25 microliters PARP cocktail (prepared from 10×PARP cocktail and 10× activated DNA, both 2.5 microliters per well and 20 microliters per well of 1×PARP buffer). The reactions are incubated at ambient temperature for 60 minutes, then the liquid was removed. After washing the wells four times with PBS (200 ul), 50 microliters of STREP-HRP (Horseradish Peroxidase) solution (diluted 500-fold in 1× Strep-Diluent) was added and the reactions were allowed to incubate for 30 minutes at ambient temperature. The liquid was removed and, after washing the wells four times with PBS (200 ul), 50 microliters each of PeroxyGlo A and B (Chemiluminescent Horseradish Peroxidase substrates) are added and the resulting chemiluminescence quantified on the SpectraMax M5 plate reader.

recombinant human PIM1 = recombinant human PIM1 (Homo sapiens (Human), UniProt P11309); assay: PIM-1 kinase activity in cell-free in vitro assay; type: biochemical; settings: for inhibition at 0.5 µM: 500 nM compound, read-out: PIM-1: % inh 500 nM
[1] = tested on: HCT-116 human colorectal carcinoma cells; assay: Cell-proliferation assay using Alamar Blue dye; type: cell-based; settings: Homo sapiens;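 also: cells exposed to compound for about 4 days, then Alamar Blue added and dye fluorescence read after about 4 h, compared with medium-only control wells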
MV-4-11 = assay: Cell proliferation modulatory activity, MV-4-11; type: cell-based; settings: Homo sapiens, MV4-11
Jurkat = assay: Cell proliferation modulatory activity, Jurkat; type: cell-based; settings: Homo sapiens
K-562 [2] = assay: Cell proliferation modulatory activity, K-562; type: cell-based; settings: Homo sapiens, K562
Flt3 = Flt3 (Homo sapiens (Human), UniProt P36888); assay: FLT-3 kinase activity in cell free in vitro assay; type: biochemical; settings: cell-free; read-out: FLT-3
recombinant human CK2 = recombinant human CK2 (Homo sapiens (Human), UniProt P68400); assay: CK2 assay (cell-free, 33P-ATP filter plate); type: biochemical; settings: for inhibition at 10 µM: read-out: CK2 % inhib @ 10 uM
[3] = tested on: MiaPaca human pancreatic carcinoma cells; assay: Cell-proliferation assay using Alamar Blue dye; type: cell-based; settings: MIA PaCa-2
Description: A representative cell-proliferation assay protocol using Alamar Blue dye (stored at 4° C., use 20 ul per well) is described hereafter.
• a. Split and trypsinize cells. • b. Count cells using hemocytometer. • c. Plate 4,000-5,000 cells per well in 100 μl of medium and seed into a 96-well plate according to the following plate layout. Add cell culture medium only to wells B10 to B12. Wells B1 to B9 have cells but no compound added.
• d. Add 100 μl of 2× drug dilution to each well in a concentration shown in the plate layout above. At the same time, add 100 μl of media into the control wells (wells B10 to B12). Total volume is 200 μl/well. • e. Incubate four (4) days at 37° C., 5% CO2 in a humidified incubator. • f. Add 20 μl Alamar Blue reagent to each well. • g. Incubate for four (4) hours at 37° C., 5% CO2 in a humidified incubator. • h. Record fluorescence at an excitation wavelength of 544 nm and emission wavelength of 590 nm using a microplate reader.
In the assays, cells are cultured with a test compound for approximately four days, the dye then is added to the cells and fluorescence of […] dye is detected after approximately four hours. Different types of cells can be utilized in the assays (e.g., HCT-116 human colorectal carcinoma cells, PC-3 human prostatic cancer cells and MiaPaca human pancreatic carcinoma cells). Anti-proliferative effects of representative compounds are provided hereafter

K-562 [4] = assay: K-562 IC50 (Table 46); type: cell-based; settings: Homo sapiens, K562
MDA MB231 = MDA MB231 IC50 (Table 46); type: cell-based; settings: Homo sapiens, MDA-MB-231
MV-411 = MV-411 IC50 (Table 46); type: cell-based; settings: Homo sapiens, MV4-11
[5] = HCT-116, read-out: HCT-116 (uM), cell proliferation modulatory activity, HCT-116, second column
[6] = HCT-116, HCT-116, second column, read-out: HCT-116 (uM), cell proliferation modulatory activity

Sequence of recombinant human PIM1 (P11309 whole entry): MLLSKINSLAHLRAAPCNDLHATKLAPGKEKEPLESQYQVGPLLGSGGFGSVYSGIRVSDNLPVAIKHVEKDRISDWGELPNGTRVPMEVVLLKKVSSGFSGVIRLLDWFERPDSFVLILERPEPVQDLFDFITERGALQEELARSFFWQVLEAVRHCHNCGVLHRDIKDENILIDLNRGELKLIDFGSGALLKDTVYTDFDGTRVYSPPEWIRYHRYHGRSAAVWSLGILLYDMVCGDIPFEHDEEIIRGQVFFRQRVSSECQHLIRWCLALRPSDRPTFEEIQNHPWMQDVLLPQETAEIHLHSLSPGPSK
Sequence of recombinant human CK2 (P68400 whole entry): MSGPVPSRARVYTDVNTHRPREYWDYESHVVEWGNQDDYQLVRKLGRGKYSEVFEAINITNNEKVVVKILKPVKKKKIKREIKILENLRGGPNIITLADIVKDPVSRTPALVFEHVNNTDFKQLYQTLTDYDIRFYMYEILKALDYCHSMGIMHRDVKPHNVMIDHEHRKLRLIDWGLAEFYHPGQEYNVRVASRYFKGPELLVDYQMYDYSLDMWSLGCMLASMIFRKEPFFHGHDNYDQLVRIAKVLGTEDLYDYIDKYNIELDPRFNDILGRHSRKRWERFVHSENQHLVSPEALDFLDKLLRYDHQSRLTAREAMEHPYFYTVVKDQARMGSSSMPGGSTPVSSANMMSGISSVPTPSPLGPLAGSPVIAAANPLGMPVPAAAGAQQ
Sequence of recombinant human CK2 (P67870 whole entry partner): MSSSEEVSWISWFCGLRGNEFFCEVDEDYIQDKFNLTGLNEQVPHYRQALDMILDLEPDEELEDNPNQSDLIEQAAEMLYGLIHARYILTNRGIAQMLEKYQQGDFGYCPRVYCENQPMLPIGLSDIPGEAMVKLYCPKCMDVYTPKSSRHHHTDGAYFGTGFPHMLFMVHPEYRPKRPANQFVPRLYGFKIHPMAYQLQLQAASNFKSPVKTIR
Sequence of PARP-HSA enzyme (P09874 whole entry): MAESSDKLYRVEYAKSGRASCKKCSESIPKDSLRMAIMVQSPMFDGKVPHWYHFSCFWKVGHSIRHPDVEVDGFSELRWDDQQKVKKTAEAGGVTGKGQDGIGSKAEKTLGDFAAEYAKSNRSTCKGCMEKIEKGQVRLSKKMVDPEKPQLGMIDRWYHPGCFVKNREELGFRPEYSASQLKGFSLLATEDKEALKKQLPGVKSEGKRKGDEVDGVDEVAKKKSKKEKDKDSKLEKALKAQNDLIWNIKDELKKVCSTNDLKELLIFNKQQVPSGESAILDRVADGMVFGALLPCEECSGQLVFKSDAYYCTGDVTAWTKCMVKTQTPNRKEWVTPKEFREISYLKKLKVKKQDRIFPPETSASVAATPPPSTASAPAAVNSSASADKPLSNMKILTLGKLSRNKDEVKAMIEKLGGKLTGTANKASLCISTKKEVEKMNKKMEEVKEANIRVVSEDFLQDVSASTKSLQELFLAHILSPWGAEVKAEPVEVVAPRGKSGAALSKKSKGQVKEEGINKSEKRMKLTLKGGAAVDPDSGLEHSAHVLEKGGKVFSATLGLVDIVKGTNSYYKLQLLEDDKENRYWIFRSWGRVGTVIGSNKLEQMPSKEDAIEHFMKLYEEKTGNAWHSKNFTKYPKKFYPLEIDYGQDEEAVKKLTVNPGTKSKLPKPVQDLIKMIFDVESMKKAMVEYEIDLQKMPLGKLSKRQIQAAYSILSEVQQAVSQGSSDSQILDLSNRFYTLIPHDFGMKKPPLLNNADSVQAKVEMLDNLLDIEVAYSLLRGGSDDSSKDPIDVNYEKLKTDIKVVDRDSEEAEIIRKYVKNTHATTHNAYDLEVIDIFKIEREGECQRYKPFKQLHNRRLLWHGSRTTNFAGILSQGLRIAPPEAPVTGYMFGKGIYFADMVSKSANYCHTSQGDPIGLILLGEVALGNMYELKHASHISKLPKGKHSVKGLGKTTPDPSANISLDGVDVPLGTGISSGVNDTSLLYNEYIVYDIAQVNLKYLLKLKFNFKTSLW
Sequence of Flt3 (P36888 27-993): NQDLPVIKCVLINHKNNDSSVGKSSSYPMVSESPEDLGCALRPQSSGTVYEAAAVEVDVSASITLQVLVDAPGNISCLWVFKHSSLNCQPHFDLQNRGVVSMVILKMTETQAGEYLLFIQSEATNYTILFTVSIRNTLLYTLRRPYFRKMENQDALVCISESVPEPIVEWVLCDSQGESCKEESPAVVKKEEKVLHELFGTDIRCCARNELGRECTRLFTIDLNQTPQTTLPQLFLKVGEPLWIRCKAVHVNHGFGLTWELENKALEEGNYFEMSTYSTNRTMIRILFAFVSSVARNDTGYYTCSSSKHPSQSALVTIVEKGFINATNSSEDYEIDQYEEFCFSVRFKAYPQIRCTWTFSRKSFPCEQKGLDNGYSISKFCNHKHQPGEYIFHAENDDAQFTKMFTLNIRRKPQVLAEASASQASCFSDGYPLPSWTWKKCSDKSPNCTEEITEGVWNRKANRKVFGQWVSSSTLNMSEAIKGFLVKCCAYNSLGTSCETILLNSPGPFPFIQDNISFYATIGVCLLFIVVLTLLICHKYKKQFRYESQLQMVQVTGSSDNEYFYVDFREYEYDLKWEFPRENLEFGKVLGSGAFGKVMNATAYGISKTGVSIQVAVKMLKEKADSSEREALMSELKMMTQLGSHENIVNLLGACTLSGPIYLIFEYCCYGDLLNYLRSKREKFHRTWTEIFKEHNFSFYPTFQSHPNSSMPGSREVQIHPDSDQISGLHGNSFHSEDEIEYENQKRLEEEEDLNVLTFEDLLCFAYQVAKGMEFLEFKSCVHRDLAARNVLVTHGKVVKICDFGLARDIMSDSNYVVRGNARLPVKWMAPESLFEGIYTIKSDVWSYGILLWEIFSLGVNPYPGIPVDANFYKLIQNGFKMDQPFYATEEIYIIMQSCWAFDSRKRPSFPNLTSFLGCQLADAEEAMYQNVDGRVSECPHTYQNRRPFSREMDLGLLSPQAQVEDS

Row | SMILES | inhibition at 0.5 µM (recombinant human PIM1; cell-free) [%] | IC50 [1, 5] [µM] | IC50 (MV-4-11) [µM] | IC50 (Jurkat) [µM] | IC50 (recombinant human PIM1; cell-free) [µM] | IC50 (K-562 [2]) [µM] | other results
1 | O=C(O)c1ccc2c(c1)[nH]c(=O)c1ccncc12 |  |  |  |  |  |  | IC50 (PARP-HSA enzyme): 1 µM
2 | CNc1ncc2c(n1)c(Nc1ccccc1)nc1cc(C(=O)O)ccc12 | 20.8 | 2.99 | > 10 | 0.728 |  |  | 
3 | O=C(O)c1ccc2c(c1)nc(Nc1cccc(F)c1)c1ccncc12 | 96.1 |  | 2.28 | 3.2 | 0.143 | > 10 | 
4 | C#Cc1cccc(Nc2nc3cc(C(=O)O)ccc3c3cncnc23)c1 [drawing 1544] | 65.9 |  | 0.464 | 3.34 | 0.306 | 2.48 | IC50 [1, 6]: 5.86 µM
5 | O=C(O)c1ccc2c(c1)nc(Nc1ccc(F)c(Cl)c1)c1ccncc12 | 82 | 4.34 | 1.7 | 2.68 | 0.115 | 7.44 | IC50 (Flt3): 0.041 µM
6 | O=C(O)c1ccc2c(c1)nc(Nc1cc(F)cc(F)c1)c1ccsc12 | 84.4 | > 10 | 0.333 | 5.86 | 0.082 | > 10 | 
7 | O=C(O)c1ccc2c3sccc3c(=O)n(CCCO)c2c1 |  |  |  |  |  |  | PARP % inhib @ 1 uM (PARP-HSA enzyme): 21%
8 | O=C(O)c1ccc2c(c1)nc(Nc1cccc(Cl)c1)c1ncncc12 | 68.2 | 7.19 | > 10 | 0.882 | 0.37 | 1.13 | 
9 | O=C(O)c1ccc2c(c1)nc(Nc1ccccc1)c1ccsc12 | 15.7 | > 10 | 8.33 | 6.12 | 0.454 | > 10 | IC50 ([1]; HCT-116, read-out: HCT-116 (uM), cell proliferation modulatory activity, HCT-116, first column): 10 µM
10 | CN(C)CCNc1nc2cc(C(=O)O)ccc2c2ccccc12 [drawing 563] |  |  |  |  |  |  | PARP Inhibition (PARP-HSA enzyme): 15% (at 1 μM)
11 | O=C(Nc1ccccc1)c1ccc2c(c1)[nH]c(=O)c1ccsc12 |  |  |  |  |  |  | PARP % inhib @ 1 uM (PARP-HSA enzyme): 0%; inhibition at 10 µM (recombinant human CK2): 22%
12 | O=C(Nc1ccc(N2CCOCC2)cc1)c1ccc2c(c1)[nH]c(=O)c1ccsc12 |  |  |  |  |  |  | PARP % inhib @ 1 uM (PARP-HSA enzyme): 0%; inhibition at 10 µM (recombinant human CK2): -3%
13 | CNC(=O)c1cccc(Nc2nc3cc(C(=O)O)ccc3c3sccc23)c1 | 18.3 | > 10 |  | 8.69 |  |  | 
14 | C#Cc1cccc(Nc2nc3cc(C(=O)O)ccc3c3cnccc23)c1 [drawing 1555] | 84.1 |  | > 10 | 2.78 | 0.296 | 3.33 | 
15 | O=c1[nH]c2cc(-c3nn[nH]n3)ccc2c2sccc12 |  |  |  |  |  |  | PARP % inhib @ 1 uM (PARP-HSA enzyme): 39%
16 | COC(=O)c1ccc2c(c1)[nH]c(=O)c1ccncc12 [drawing 562] |  |  |  |  |  |  | IC50 (PARP-HSA enzyme): 0.8 µM
17 | COc1cccc(Nc2nc3cc(C(=O)O)ccc3c3cnccc23)c1 | 75.9 |  | 1.12 | 6.52 | 0.088 | 5.86 | IC50 (Flt3): 0.009 µM

Row | SMILES | inhibition at 0.5 µM (recombinant human PIM1; cell-free) [%] | IC50 [1, 5] [µM] | IC50 (MV-4-11) [µM] | IC50 (Jurkat) [µM] | IC50 (recombinant human PIM1; cell-free) [µM] | IC50 (K-562 [2]) [µM] | other results
18 | O=C(NC1CC1)c1cccc(Nc2nc3cc(-c4nnn[nH]4)ccc3c3sccc23)c1 | 46.8 | > 10 |  | 6.97 |  |  | 
19 | CN(C)CCn1c(=O)c2ccsc2c2ccc(C(=O)O)cc21 |  |  |  |  |  |  | PARP % inhib @ 1 uM (PARP-HSA enzyme): 5%
20 | O=C(O)c1ccc2c(c1)nc(Nc1cccc(F)c1)c1ccsc12 | 82.7 | > 10 | 0.475 | 5.92 | 0.136 | > 10 | 
21 | COCCOc1ccc(Nc2nc3c(-c4nnc[nH]4)cccc3c3cnccc23)c(F)c1 |  |  |  |  |  |  | IC50 (recombinant human PIM1): < 0.1 µM; IC50 [3]: < 1 µM; IC50 (K-562 [4]): < 0.5 µM; IC50 (MDA MB231): < 1 µM; IC50 (MV-411): < 0.1 µM
22 | O=C(O)c1ccc2c(c1)nc(Nc1ccccc1)c1ccccc12 [drawing 564] |  |  |  |  |  |  | PARP Inhibition (PARP-HSA enzyme): 9% (at 1 μM)
23 | c1ccc(Nc2nc3cc(-c4nnc[nH]4)ccc3c3sccc23)cc1 | -3.3 |  |  | 7.6 |  | 6.26 | IC50 [1, 6]: 4.9 µM
24 | O=C(O)c1ccc2c(c1)nc(Nc1cccc(Cl)c1)c1ccncc12 [drawing 1512] | 90 |  | 1.68 | 3.42 |  | 4.39 | IC50 [1, 6]: 5.09 µM; inhibition at 0.5 µM (recombinant human CK2; 500 nM compound, cell-free, read-out: CK2: % inh 500 nM): 102%
25 | O=C(O)c1ccc2c(c1)nc(Nc1ccc(F)c(Cl)c1)c1ncncc12 | 54.8 |  |  | 4.29 | 0.368 |  | 
26 | COC(=O)c1ccc2c(c1)nc(Nc1ccc(F)c(Cl)c1)c1ccncc12 | 10.2 | 3.94 |  | 4.25 |  |  | 
27 | O=C(O)c1ccc2c(c1)nc(Nc1ccc(Cl)cc1)c1ccncc12 | 83 | 6.72 | 1.56 | 2.52 | 0.284 | 8.65 | 
28 | O=C(O)c1ccc2c(c1)nc(Nc1cc(F)cc(F)c1)c1ncncc12 | 80 | 4.05 |  | 2.59 | > 1.1 | 2.41 | 
29 | CNC(=O)c1cccc(Nc2nc3cc(-c4nnn[nH]4)ccc3c3sccc23)c1 | 81.7 | > 10 |  | 4.22 | 0.329 |  | 
30 | Fc1cccc(Nc2nc3cc(-c4nnn[nH]4)ccc3c3cnccc23)c1 | 45 |  |  | 9.43 |  |  | 
31 | O=c1[nH]c2cc(-c3nnn[nH]3)ccc2c2ccccc12 |  |  |  |  |  |  | IC50 (PARP-HSA enzyme): 0.03 µM
32 | Clc1cccc(Nc2nc3cc(-c4nnn[nH]4)ccc3c3sccc23)c1 | 83.3 |  |  | 8.89 | 0.345 |  | 
33 | O=C(O)c1ccc2c(c1)nc(Nc1cc(Cl)cc(Cl)c1)c1ccsc12 | 67.1 | 8.76 |  | 4.31 |  |  | 
